Here are results for 2 compounds from BindingDB's records for patent US11834430 (Agency For Science, Technology and Research, 2023).

The experiment addresses Protein-S-isoprenylcysteine O-methyltransferase (Homo sapiens, UniProt O60725). Nature of the experiment: ICMT Biochemical Assay. As for the experimental part:
An ICMT enzymatic assay was developed using Promega's Methyltransferase-GloTMreagents. In the assay, ICMT catalyzes the methylation of the N-Acetyl-S-farnesyl-L-cysteine by transferring a methyl group from SAM to the farnesylated cysteine and further converts the SAM to SAH. The methyltransferase activity is measured based on the amount of SAH produced from the reaction through the use of coupling enzymes that convert the SAH to ATP. […] A final concentration of 2.0 μM and 20 μM of SAM and peptide were added and further incubated for 90 minutes at room temperature before adding the MTase Glo and detection reagent. Reaction signals were detected using microplate readers on luminescent mode (Satire Tecan).

The structures appear in SMILES notation.

Sequence of Protein-S-isoprenylcysteine O-methyltransferase (O60725 whole entry): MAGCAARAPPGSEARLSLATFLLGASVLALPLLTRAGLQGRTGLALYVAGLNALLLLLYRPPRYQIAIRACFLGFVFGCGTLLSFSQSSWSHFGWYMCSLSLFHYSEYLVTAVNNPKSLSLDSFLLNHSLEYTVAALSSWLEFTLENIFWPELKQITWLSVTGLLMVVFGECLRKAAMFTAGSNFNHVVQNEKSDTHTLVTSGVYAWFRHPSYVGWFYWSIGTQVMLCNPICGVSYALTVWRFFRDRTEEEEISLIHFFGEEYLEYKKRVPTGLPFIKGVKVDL

Regarding `COc1cc(Cl)ccc1OCCOc1cccc(-n2ccnc2C)c1` [US11834430, Compound 45], the midpoint of inhibition, the IC50, lay at 76 nM.

As to `N#Cc1ccc(OCCOc2ccc(F)c(-c3ccnn3C3CC3)c2)c(F)c1` [US11834430, Compound 88], half-maximal inhibition (IC50) was put at 18 nM.
